The target of one test is T1, GST-rat CK1δ (Rattus norvegicus, UniProt Q06486).
T1 construct: made in house; host or cells: bacteria (pGEX-2T)
Nature of the test: In vitro kinase assay, GST-rat CK1δ. The test is classed as biochemical. The settings on record: for GST-wt CK1δ activity in the presence of inhibitor: inhibitor at its determined IC50 concentration (Fig. 7).

Another test has as its system SW480 cells. Kind of test: Flow cytometry cell cycle analysis. The test is classed as cell-based, human. The settings on record: SW480, 2 or 4 μM, 48 h (data not shown). As for the experimental part:
(§1) Frwt648 cells [generated by SV40-transformation of F111 cells; (Hinzpeter and Deppert [1987])] and mKSA cells [SV40-transformed Balb/c fibroblasts; (Kit et al. [1969])] were grown in Dulbecco’s modified Eagle’s medium (DMEM) supplemented with 5% fetal calf serum (FCS; Biochrom, Berlin, Germany). The fibrosarcoma cell line HT1080 (Rasheed et al. [1974]) was grown in DMEM containing 10% FCS and 2 mM glutamine while both the prostate cancer cell line DU-145 (Stone et al. [1978]) and the ovary tissue cancer cell line OVCAR-3 (Hamilton et al. [1983]) were maintained in RPMI-1640 supplemented with 10% FCS. The pancreatic cancer cell line Colo357 (Morgan et al. [1980]) was grown in DMEM/RPMI (1:1) and the colon adenocarcinoma cell line SW480 (Leibovitz et al. [1976]) in Leibovitz L-15 medium, both containing 10% FCS and 2 mM glutamine. All media were supplemented with 100 U/ml penicillin and 100 μg/ml streptomycin (Gibco, Karlsruhe, Germany) and all cell lines were grown at 37°C in a humidified 5% carbon dioxide atmosphere.
(§2) Subconfluent Frwt648, mKSA, Colo357, OVCAR-3, HT1080, DU-145 and SW480 cells were treated with 2 or 4 μM of compounds 5 or 6 for 48 h. Untreated and DMSO treated cells served as control. Cells were harvested, washed once with phosphate-buffered saline (PBS), and prepared for cell cycle analysis using the “Cycle Test Plus Kit” (BD, San Jose, USA). Cell cycle profiles were obtained using a FACScan flow cytometer and CellQuest software (BD Biosciences, San Jose, USA).
For orientation: In flow cytometry, cells or beads pass a laser one at a time.

For another test, the system named is OVCAR-3 cells. Nature of the test: Flow cytometry cell cycle analysis. The class given is cell-based, human. The settings on record: 48 h. How it is done:
as §1, §2

The next test has as its system HT1080 cells. Kind of test: Flow cytometry cell cycle analysis. The test is classed as cell-based, human. The settings on record: HT1080, 2 or 4 μM, 48 h (data not shown). How it is done:
as §1, §2

Another test relates to Colo357 cells. Nature of the test: Flow cytometry cell cycle analysis. The settings on record: Colo357, 2 or 4 μM, 48 h. The class given is cell-based, human. How it is done:
as §1, §2

The next test relates to DU-145 cells. Nature of the test: Flow cytometry cell cycle analysis. To be noted: 48 h (data not shown); for dead cells: DU-145, 2 or 4 μM. The class given is cell-based, human. How it is done:
as §1, §2

In the next test the target is T2, GST-mouse CK1δTV1 (Mus musculus, UniProt Q9DC28).
T2 construct: made in house; host or cells: bacteria (pGEX-2T)
Nature of the test: In vitro kinase assay, GST-mouse CK1δTV1. The class given is biochemical. An excerpt: (§3) CK1δTV1 and 2 (transcription variants 1 and 2) were PCR amplified from mouse cDNA (5′-primer TV1 and 2: 5′-[…]-3′, 3′-primer TV1: 5′-[…]-3′, 3′-primer TV2: 5′-[…]-3′) and cloned into pcDNA3.1/V5-His© TOPO® TA cloning vector (Invitrogen, Karlsruhe, Germany) before being subcloned into pGEX-2T expression vector via BamHI to generate plasmids pGEX-2T-mouse CK1δTV1 (FP1170) and pGEX-2T-mouse CK1δTV2 (FP1171).
(§4) Expression and purification of the GST-fusion proteins GST-mouse p53^1–64 (FP267), GST-rat CK1δ (FP449), GST-rat CK1δ^M82F (FP1153), GST-mouse CK1δTV1 (FP1170), and GST-mouse CK1δTV2 (FP1171) was carried out as described elsewhere (Wolff et al. [2005]). Expression of fusion proteins FP1170 and 1171 was either performed at 37°C for 2 h, or at 15°C for 14 h. FP449 and FP1153 were always expressed at 15°C for 14 h.
(§5) In vitro kinase assays were carried out in the presence of various potential inhibitors of CK1δ at an ATP concentration of 0.01 mM and dimethyl sulfoxide (DMSO) solvent control as described previously (Knippschild et al. [1996]). Where indicated higher ATP concentrations (0.05, 0.1, 0.25 and 0.5 mM) were used. The fusion protein GST-mouse p53^1−64 (FP267) was used as substrate. Recombinant CK1δ kinase domain (CK1δkd, NEB, Frankfurt am Main, Germany), GST-rat CK1δ (FP449), GST-rat CK1δ^M82F (FP1153), GST-mouse CK1δTV1, GST-mouse CK1δTV2 and recombinant human CK1ε (Invitrogen, Karlsruhe, Germany) were used as sources of enzyme. Phosphorylated proteins were separated by SDS-PAGE and the protein bands were visualized on dried gels by autoradiography. The phosphorylated protein bands were excised and quantified by Cherenkov counting.

A further test has as its target T3, human CK1ε (Homo sapiens, UniProt P49674).
T3 construct: purchased Invitrogen, Karlsruhe, Germany
Kind of test: In vitro kinase assay, CK1ε. To be noted: for inhibition of CK1ε in initial screen: inhibitor 10 μM, 10 μM ATP (Fig. 1b). The class given is biochemical.

The next test concerns the target T4, GST-mouse CK1δTV2 (Mus musculus, UniProt Q9DC28).
T4 construct: made in house; host or cells: bacteria (pGEX-2T)
T4 sequence (Q9DC28 1-409 isoform Q9DC28-2): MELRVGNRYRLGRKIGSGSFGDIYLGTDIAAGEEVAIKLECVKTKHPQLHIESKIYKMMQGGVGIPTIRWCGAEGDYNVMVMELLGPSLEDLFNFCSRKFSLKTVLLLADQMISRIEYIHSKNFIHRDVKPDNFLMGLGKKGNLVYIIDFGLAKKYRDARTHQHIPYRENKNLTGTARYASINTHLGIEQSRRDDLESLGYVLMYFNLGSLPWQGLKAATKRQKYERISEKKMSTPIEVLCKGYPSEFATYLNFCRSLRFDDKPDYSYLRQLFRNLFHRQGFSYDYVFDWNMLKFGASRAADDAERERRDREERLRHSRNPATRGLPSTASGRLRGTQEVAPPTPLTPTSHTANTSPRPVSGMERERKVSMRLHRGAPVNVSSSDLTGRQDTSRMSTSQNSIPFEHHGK
Kind of test: In vitro kinase assay, GST-mouse CK1δTV2. The class given is biochemical.
Description: as §3, §4, §5

A further test concerns mKSA cells. Kind of test: Flow cytometry cell cycle analysis. The test is classed as cell-based, mouse. The settings on record: 2 and 4 μM, 48 h, range stated jointly for Frwt648 and mKSA and compounds 5 and 6. How it is done: as §1
Subconfluent Frwt648, mKSA, Colo357, OVCAR-3, HT1080, DU-145 and SW480 cells were treated with 2 or 4 μM of compounds 5 or 6 for 48 h. Untreated and DMSO treated cells served as control. Cells were harvested, washed once with phosphate-buffered saline (PBS), and prepared for cell cycle analysis using the “Cycle Test Plus Kit” (BD, San Jose, USA). […]

Setting [1] is: 0.01 mM ATP, substrate GST-mouse p53^1-64, mean ± SD, read-out: IC50 (μM) GST-CK1δ TV1.
Where [2] appears, read: 0.01 mM ATP, substrate GST-mouse p53^1-64, mean ± SD, read-out: IC50 (μM) GST-CK1δ TV2.
Where [3] appears, read: 0.01 mM ATP, substrate GST-mouse p53^1-64, mean ± SD.

Where “and” joins values, the source holds several entries; their conditions need not be identical. Identical values can stand only once. Like-named read-outs stand apart in the source and are kept apart here.

T1 sequence (Q06486 whole entry): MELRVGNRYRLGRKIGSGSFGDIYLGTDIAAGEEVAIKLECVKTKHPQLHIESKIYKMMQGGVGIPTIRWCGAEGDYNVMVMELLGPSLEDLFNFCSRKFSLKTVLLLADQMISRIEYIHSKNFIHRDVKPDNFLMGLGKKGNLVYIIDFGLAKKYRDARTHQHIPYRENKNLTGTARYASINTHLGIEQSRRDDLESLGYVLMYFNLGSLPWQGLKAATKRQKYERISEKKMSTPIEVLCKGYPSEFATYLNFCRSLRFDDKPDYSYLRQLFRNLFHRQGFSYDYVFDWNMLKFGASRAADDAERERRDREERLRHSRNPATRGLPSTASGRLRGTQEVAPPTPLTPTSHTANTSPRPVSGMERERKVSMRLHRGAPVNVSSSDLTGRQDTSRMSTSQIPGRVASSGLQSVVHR
T2 sequence (Q9DC28 whole entry): as the sequence (Q06486 whole entry) above
T3 sequence (P49674 whole entry): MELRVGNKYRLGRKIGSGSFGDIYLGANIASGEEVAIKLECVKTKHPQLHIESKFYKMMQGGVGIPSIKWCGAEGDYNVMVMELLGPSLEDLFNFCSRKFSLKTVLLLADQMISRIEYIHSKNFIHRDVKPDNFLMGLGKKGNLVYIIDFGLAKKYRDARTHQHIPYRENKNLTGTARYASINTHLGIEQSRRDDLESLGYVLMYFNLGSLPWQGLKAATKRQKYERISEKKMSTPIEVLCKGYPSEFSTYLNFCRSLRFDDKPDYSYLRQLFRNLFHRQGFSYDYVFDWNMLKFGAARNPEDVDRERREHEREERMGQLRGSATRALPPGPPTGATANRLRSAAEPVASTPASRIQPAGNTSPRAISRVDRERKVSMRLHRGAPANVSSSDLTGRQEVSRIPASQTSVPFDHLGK

As to `O=C(Nc1nc2ccc(C(F)(F)F)cc2[nH]1)c1csc(NC(=O)c2ccccc2OC(F)(F)F)n1` [Compound 5, 2-(2-(Trifluoromethoxy)benzamido)-N-(6-(trifluoromethyl)-1H-benzo[d]imidazol-2-yl)thiazole-4-carboxamide], the “GST-wt CK1δ activity in the presence of inhibitor” value on GST-rat CK1δ is on record as “clearly decreased”. Moreover, on GST-rat CK1δ (ratio of IC50 values CK1ε / CK1δ), the “higher affinity towards CK1δ than to CK1ε” value is on record as “fivefold”. In addition, the dead cells in the test with SW480 cells is recorded as at most 20%; in the test on HT1080 cells it was at most 20%; with DU-145 cells, at most 20%; in the test with mKSA cells, 35–98%. Further, the “effect on cell cycle distribution” value is “slight increase of cells in the G2 phase” in the test with OVCAR-3 cells (OVCAR-3, 2 or 4 μM) and “more cells appeared to be in the G1 phase” with Colo357 cells. For the same compound, the “susceptibility of DU-145 to treatment” value in the test with DU-145 cells (2 or 4 μM) is on record as “unsusceptible”. The IC50 (as a rule, the concentration that gives 50% inhibition) amounted to 0.022 ± 0.02 µM at GST-mouse CK1δTV1 (setting [1]); 0.066 µM against GST-mouse CK1δTV1 (IC50 CK1δTV1, 2 h, enzyme induced for 2 h at 37°C); 0.023 µM on GST-mouse CK1δTV1 (enzyme induced for 14 h at 15°C, read-out: IC50 CK1δTV1, 14 h); 0.042 ± 0.02 µM on GST-mouse CK1δTV2 (setting [2]); 0.064 µM at GST-mouse CK1δTV2 (IC50 CK1δTV2, 2 h, enzyme induced for 2 h at 37°C); 0.043 µM on GST-mouse CK1δTV2 (enzyme induced for 14 h at 15°C, read-out: IC50 CK1δTV2, 14 h). Further, the “inhibition of CK1ε in initial screen” value against human CK1ε is listed as “significant inhibition”.
As to `O=C(Nc1nc2cc(Cl)c(F)cc2[nH]1)c1csc(NC(=O)c2ccccc2OC(F)(F)F)n1` [Compound 6, N-(5-Chloro-6-fluoro-1H-benzo[d]imidazol-2-yl)-2-(2-(trifluoromethoxy)benzamido)thiazole-4-carboxamide], the IC50 against GST-rat CK1δ (setting [3]) is 0.042 ± 0.05 µM; on GST-mouse CK1δTV1 (setting [1]), 0.048 ± 0.02 µM; against human CK1ε (setting [3]) it was 0.0326 µM and 0.033 µM; on GST-mouse CK1δTV2 (setting [2]), 0.055 ± 0.02 µM. Besides, the “GST-wt CK1δ activity in the presence of inhibitor” value on GST-rat CK1δ was “clearly decreased”. The dead cells with SW480 cells was at most 20%; in the test on HT1080 cells, at most 20%; with DU-145 cells, at most 20%; with mKSA cells it was 35–98%. Also, in the test on OVCAR-3 cells (OVCAR-3, 4 μM), the “cells died upon treatment” value is given as 39%. For the same compound, the “effect on cell cycle distribution” value in the test with Colo357 cells is “more cells appeared to be in the G1 phase”. In addition, the “inhibition of CK1ε in initial screen” value on human CK1ε is recorded as “significant inhibition”.

Source of the values: publication PMC3448056, “2-Benzamido-N-(1H-benzo[d]imidazol-2-yl)thiazole-4-carboxamide derivatives as potent inhibitors of CK1δ/ε” (Amino Acids, 2012).
